Where a name gives a salt, the structure may show the parent alone.
Experiments:
[1] = Toxicity study; assay type: in vivo; settings: rats, orally, 300 mg/kg
Description: Compound 1 caused no death in rats when it was orally administered at 300 mg/kg.

[2] = molecular target: T1, human recombinant cathepsin L (Homo sapiens, UniProt P07711); assay: Determination of cathepsin L inhibitory activity; assay type: biochemical; settings: human recombinant cathepsin L 1 ng; 20 μM Z-Phe-Arg-7MCA; pH 5.5; 37° C., 20 minutes; read-out: Inhibitory activity potency IC50 (Cathepsin L) (converted)
T1 construct: they were identified as a precursor of human cathepsin L and a product processed therefrom; made in house; host or cells: mouse myeloma Sp2/0 cells stably transformed with pTBN-HCLneo (Sp-HCL26); secreted, purified from serum-free culture supernatant
Description: (a) Determination of cathepsin L inhibitory activity
To 75 μl of a reaction mixture containing 1 ng of human recombinant cathepsin L (those produced in Reference Examples 1 through 7 below were employed), 2 μM of dithiothreitol (hereinafter abbreviated as DTT), 1 mM of ethylenediaminetetraacetate disodium salt, 0.1M of a sodium acetate buffer solution (pH 5.5) and various concentrations of the sample, 25 μl of 20 μM benzyloxycarbonyl-L-phenylalanyl-L-arginine-4-methylcoumaryl-7-amide (hereinafter simply referred to as Z-Phe-Arg-7MCA, manufactured by Peptide Institute, Inc.) was added to initiate the reaction, and the reaction mixture was incubated at 37° C. for 20 minutes, followed by addition of 100 μl of a solution containing 100 mM of sodium monochloroacetate to suspend the reaction. The amount of liberated 4-methyl-7-aminocoumarin was determined at an excitation wavelength of 365 nm and a fluorescence wavelength of 450 nm, using a fluorophotometer (FCA: manufactured by Baxter Labs). The sample concentration required to cause 50% inhibition was expressed as the IC50 value, with the fluorescence value obtained from the same reaction in the absence of the sample taken as 100%.

[3] = test system: bone resorption as enhanced by PTH (parathyroid hormone); assay: Determination of bone resorption suppressive activity (PTH-enhanced, isolated mouse femur culture); assay type: cell-based, female BALB/c mice; settings: 168 h, test compound 10 μg/ml, PTH 1 μM, 7 days culture, total calcium content, 100x(Cp-Cs)/(Cp-Cc)
Description: Further, the compound (I) of this invention or salts thereof have an excellent activity of suppressing bone resorption. Their suppressive action against bone resorption as enhanced by PTH (parathyroid hormone) was determined by the method described below. The results are shown in [Table 3].
Determination of bone resorption suppressive activity
Femurs were aseptically isolated from female BALB/c mice at 8-10 weeks of age. After the bone marrow cavity was washed with a Ham's F-12 medium containing 10% (w/w) thermally inactivated fetal calf serum, 100 unit/ml penicillin G and 100 unit/ml streptomycin (hereinafter referred to as culture broth), each femur was added to 1 ml of the culture broth and precultured for 3 hours at 37° C. in the presence of 5% carbon dioxide gas and 95% air. Each bone was transferred to 1 ml of the culture broth supplemented with PTH (produced by Peptide Institute, Inc., final concentration of 1 μM) and the test compound (final concentration 10 μg/ml (and cultured for 7 more days, after which the total calcium content in the culture broth was determined using Calcium E-Test Wako (manufactured by Wako Pure Chemical Industries, Ltd.). The bone resorption suppressive activity of the test compound was calculated using the following equation:
Bone resorption suppressive activity(%)=100x(Cp-Cs)/(Cp-Cc)
Cc: Total calcium content in the culture broth containing neither PTH nor test compound
Cp: Total calcium content in the culture broth containing PTH
Cs: Total calcium content in the culture broth containing both PTH and test compound

[4] = molecular target: T2, cathepsin B (Homo sapiens, UniProt P07858); assay: Determination of cathepsin B inhibitory activity; assay type: biochemical; settings: cathepsin B 30 ng (Sigma); 20 μM Z-Phe-Arg-7MCA; pH 5.5; 37° C., 20 minutes; read-out: Inhibitory activity potency IC50 (TABLE 2, head printed Cathepsin L) (converted)
T2 construct: purchased Sigma Chemical Co
Description: (b) Determination of cathepsin B inhibitory activity
To 75 μl of a reaction mixture containing 30 ng of cathepsin B (produced by Sigma Chemical Co.), 2 μM DTT, 1 mM ethylenediaminetetraacetate disodium salt, 0.1M sodium acetate buffer (pH 5.5) and various concentrations of the sample, 25 μl of 20 μM Z-Phe-Arg-7MCA was added to initiate the reaction, and the reaction mixture was incubated at 37° C. for 20 minutes, followed by addition of 100 μl of a solution containing 100 mM sodium monochloroacetate to suspend the reaction. The amount of liberated 4-methyl-7-aminocoumarin was determined at an excitation wavelength of 365 nm and a fluorescence wavelength of 450 nm, using a fluorophotometer. The sample concentration required to cause 50% inhibition was expressed as the IC50 value, with the fluorescence value obtained from the same reaction in the absence of the sample taken as 100%.

T1 sequence (P07711 114-333): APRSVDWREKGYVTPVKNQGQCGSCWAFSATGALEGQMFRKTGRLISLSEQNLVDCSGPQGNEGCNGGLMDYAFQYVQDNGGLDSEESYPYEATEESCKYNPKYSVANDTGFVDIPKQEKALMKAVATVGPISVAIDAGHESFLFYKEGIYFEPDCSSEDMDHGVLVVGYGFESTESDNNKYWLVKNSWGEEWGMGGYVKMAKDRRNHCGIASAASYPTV

SMILES	death after oral administration [1]	IC50 [2] [nM]	inhibition at 10 µg/mL [3] [%]	IC50 [4] [nM]
CCOC(=O)[C@H]1O[C@@H]1C(=O)N[C@@H](Cc1ccccc1)C(=O)NCCCOC [Compound 1, N-[N-[(2S,3S)-3-trans-ethoxycarbonyloxysirane-2-carbonyl]-L-phenylalanyl]-1-amino-3-methoxypropane]	no death			
COCCCNC(=O)[C@H](Cc1ccccc1)NC(=O)[C@H]1O[C@@H]1C(=O)O [Compound 2, N-[N-[(2S,3S)-3-trans-carboxyoxirane-2-carbonyl]-L-phenylalanyl]-1-amino-3-methoxypropane monosodium salt]		8.56		
O=C(NCCCO)[C@H](Cc1ccccc1)NC(=O)[C@H]1O[C@@H]1C(=O)O [Compound 4, N-[N-[(2S,3S)-3-trans-carboxyoxirane-2-carbonyl]-L-phenylalanyl]-3-amino-1-propanol monosodium salt]			176	
CC(=O)OCCCNC(=O)[C@H](Cc1ccccc1)NC(=O)[C@H]1O[C@@H]1C(=O)O [Compound 6, N-[N-[(2S,3S)-3-trans-carboxyoxirane-2-carbonyl]-L-phenylalanyl]-3-amino-acetoxypropane monosodium salt]		13.2	144	
CSCCCNC(=O)[C@H](Cc1ccccc1)NC(=O)[C@H]1O[C@@H]1C(=O)O [Compound 8, N-[N-[(2S,3S)-3-trans-carboxyoxirane-2-carbonyl]-L-phenylalanyl]-1-amino-3-methylthiopropane monosodium salt]		8.19	142	5.46
